Measurements from article PMC10747602, “Dose Response, Dosimetric, and Metabolic Evaluations of Replacement PFAS Perfluoro-(2,5,8-trimethyl-3,6,9-trioxadodecanoic) Acid (HFPO-TeA)” (Toxics, 2023).
Values joined by “and” are separate entries in the source; they are usually repeats but may differ in a detail not shown here. Identical values can stand only once. Like-named read-outs stand apart in the source and are kept apart here.

Test: Plasma HFPO-TeA dosimetry
Assay type: in vivo, Sprague Dawley rats
Procedure: Whole blood was collected from the retro-orbital plexus under isoflurane anesthesia 2 h following the first dose and by cardiac puncture 24 h after the last dosage. Blood was stored in anticoagulant potassium ethylenediaminetetraacetic acid (K3EDTA)-coated vacutainers, and then processed to isolate plasma via centrifugation. Animals were euthanized via carbon dioxide asphyxiation and subsequent exsanguination. Liver was collected, weighed, cubed, and divided into three aliquots. One aliquot of tissue was flash-frozen in liquid nitrogen and stored at −80 °C for analytical chemistry analyses. The remaining two aliquots were placed in RNALater and frozen for use in the companion transcriptomic study. Liver and plasma samples were received at the U.S. EPA Center for Computational Toxicology and Exposure, Advanced Analytical Chemistry Methods Branch in Research Triangle Park, North Carolina, USA, and stored at −80 °C prior to extraction.
Detailed information on the procedure, chemicals, and materials used in the plasma HFPO-TeA dosimetry work can be found in Supplementary Text S4 and Table S3. Plasma preparation (2 h and 5 days) was modified from Conley et al.’s work and is detailed in Supplementary Text S4 [45]. Briefly, aliquots (25 µL) were mixed with methanol (MeOH) and water (H2O) containing 0.1 M FA, spiked with the internal standard perfluorohexadecanoic acid (PFHxDA), and then denatured plasma proteins were precipitated using ACN. Samples were held at −20 °C then centrifuged for separation of the supernatant. Supernatants were collected and stored at −20 °C prior to analysis.
Targeted analysis of HFPO-TeA was conducted on a Sciex X500R QTOF liquid chromatography/mass spectrometer system operated in high-resolution MRM negative ion ESI mode. A Phenomenex C18 column (Kinetex XB-C18, 100 × 2.1 mm, particle size 2.6 µm) was used for chromatographic separation with the flow rate set to 0.2 mL/min and a temperature of 40 °C. […] Ammonium formate (4 mM) was added to both eluents. Additional details of the instrument parameters are provided in Table S8 and monitored transitions in Table S9. Matrix blanks were analyzed with each sample set. Statistical analysis is described in Supplementary Text S3. Normalization calculations are described in Supplementary Text S5 [47, 48].
All in vivo results values are reported as mean ± one standard deviation (SD). Statistical evaluation of in vivo data was conducted using a two-way analysis of variance (ANOVA) and Dunnett’s Test, both at α = 0.05 significance level, on GraphPad Prism v9.5.1.
Support ing Text S4: Plasma Dosimetry Chemicals, Materials, and Analysis Sprague Dawley rodent plasma (pooled, mixed sex) collected with ethylenediaminetetraacetic acid (EDTA) and sterile filtered (0.2 µm) was obtained from BioIVT (Westbury, NY, USA) and stored at -80 °C until use as the control matrix for generating calibration curves and as the matrix blank during plasma sample analysis. The HFPO-TeA (98.97% pure) used for calibration curve preparation was obtained from Oakwood Products Inc. (West Columbia, South Carolina, USA). Unlabeled perfluorohexadecanoic acid (CASRN 67905-19-5 | DTXSID1070800 | PFHxDA; ≥ 98% pure) was obtained from Cambridge Isotope Laboratories (Tewksbury, MA, USA) to serve as the internal standard since a labeled HFPO-TeA standard was not commercially available.
Aliquots (25 µL) were denatured with MeOH and H2O containing 0.1 M FA and then crashed using ACN. Volumes of MeOH, FA, and ACN were determined by the anticipated sample concentrations of […]
HFPO-TeA/mL plasma = 100 µL MeOH + 875 µL FA then 50 µL subsample removed and crashed with 950 µL ACN. Anticipated sample ranges were intentionally overlapped to account for HFPO-TeA concentration differences due to biological variability among the dose groups. The internal standard PFHxDA was added prior to the ACN crash. Samples were vortexed after the addition of each solvent. […]

O=C(O)C(F)(OC(F)(F)C(F)(OC(F)(F)C(F)(OC(F)(F)C(F)(F)C(F)(F)F)C(F)(F)F)C(F)(F)F)C(F)(F)F (stereo not drawn) [HFPO-TeA, perfluoro-(2,5,8-trimethyl-3,6,9-trioxadodecanoic) acid]
Plasma Conc. (0.3 mg/kg/day, F, 2 hours, individual rats): 0.124 µg/mL and 0.187 µM and 0.0778 µg/mL and 0.117 µM and 0.0785 µg/mL and 0.119 µM
5D Plasma Conc. (0.3 mg/kg/day, F, 5 days of exposure, mean ± SD n=4): 0.854 ± 0.086 µM
Plasma Conc. (0.3 mg/kg/day, F, 5 days, individual rats): 0.492 µg/mL and 0.743 µM and 0.622 µg/mL and 0.939 µM
Plasma Conc. (0.3 mg/kg/day, M, 2 hours, individual rats): 0.094 µg/mL and 0.142 µM and 0.086 µg/mL and 0.129 µM and 0.101 µg/mL and 0.153 µM
5D Plasma Conc. (0.3 mg/kg/day, M, 5 days of exposure, mean ± SD n=4): 0.827 ± 0.071 µM
concentration at 5 days (0.3 mg/kg/day, M, 5 days of exposure, mean ± SD n=4, read-out: 5D Plasma Conc.): 827 nM
Plasma Conc. (0.3 mg/kg/day, M, 5 days, individual rats): 0.586 µg/mL and 0.885 µM and 0.567 µg/mL
Plasma Conc. (0.9 mg/kg/day, F, 2 hours, individual rats): 0.309 µg/mL and 0.467 µM and 0.418 µg/mL and 0.631 µM and 0.392 µg/mL and 0.592 µM
Plasma Conc. (0.9 mg/kg/day, M, 2 hours, individual rats): 0.291 µg/mL and 0.439 µM and 0.450 µg/mL and 0.679 µM and 0.345 µg/mL and 0.521 µM
5D Plasma Conc. (0.9 mg/kg/day, M, 5 days of exposure, mean ± SD n=4): 2.73 ± 0.45 µM
concentration at 5 days (0.9 mg/kg/day, M, 5 days of exposure, mean ± SD n=4, read-out: 5D Plasma Conc.): 2730 nM
Plasma Conc. (0.9 mg/kg/day, M, 5 days, individual rats): 1.45 µg/mL and 2.19 µM and 2.16 µg/mL and 3.26 µM and 1.75 µg/mL and 2.65 µM
Plasma Conc. (2.3 mg/kg/day, F, 2 hours, individual rats): 6.87 µg/mL and 10.4 µM and 7.78 µg/mL and 11.7 µM and 10.8 µg/mL and 16.3 µM and 14.6 µg/mL and 22.1 µM
Plasma Conc. (2.3 mg/kg/day, M, 2 hours, individual rats): 11.4 µg/mL and 17.3 µM and 8.06 µg/mL and 12.2 µM and 7.45 µg/mL and 11.3 µM
Plasma Conc. (2.3 mg/kg/day, M, 5 days, individual rats): 3.35 µg/mL and 5.06 µM and 3.50 µg/mL and 5.29 µM and 5.04 µg/mL and 7.61 µM
Plasma Conc. (6.3 mg/kg/day, F, 2 hours, individual rats): 19.5 µg/mL and 29.5 µM and 43.9 µg/mL and 66.4 µM and 41.1 µg/mL and 62.0 µM and 36.3 µg/mL and 54.9 µM
5D Plasma Conc. (6.3 mg/kg/day, F, 5 days of exposure, mean ± SD n=4): 52.6 ± 14.3 µM
Plasma Conc. (6.3 mg/kg/day, M, 2 hours, individual rats): 24.4 µg/mL and 36.8 µM and 17.1 µg/mL and 25.8 µM and 24.9 µg/mL and 37.7 µM
Plasma Conc. (6.3 mg/kg/day, M, 5 days, individual rats): 15.5 µg/mL and 15.1 µg/mL and 22.9 µM and 23.8 µM and 18.5 µg/mL and 28.0 µM
2 h Plasma Conc. (17 mg/kg/day, F, 2 h after first dose, mean ± SD n=4): 224 ± 76 µM
Plasma Conc. (17 mg/kg/day, F, 2 hours, individual rats): 197 µg/mL and 298 µM and 184 µg/mL and 278 µM and 94.0 µg/mL and 142 µM and 118 µg/mL and 179 µM
5D Plasma Conc. (17 mg/kg/day, F, 5 days of exposure, mean ± SD n=4): 278 ± 28 µM
2 h Plasma Conc. (17 mg/kg/day, M, 2 h after first dose, mean ± SD n=4): 126 ± 62 µM
Plasma Conc. (17 mg/kg/day, M, 2 hours, individual rats): 60.6 µg/mL and 91.6 µM and 55.8 µg/mL and 84.3 µM and 73.0 µg/mL and 110 µM and 218 µM
5D Plasma Conc. (17 mg/kg/day, M, 5 days of exposure, mean ± SD n=4): 168 ± 53 µM
concentration at 5 days (17 mg/kg/day, M, 5 days of exposure, mean ± SD n=4, read-out: 5D Plasma Conc.): 168000 nM
Plasma Conc. (17 mg/kg/day, M, 5 days, individual rats): 65.4 µg/mL and 98.9 µM and 109 µg/mL and 165 µM and 150 µg/mL and 227 µM and 118 µg/mL and 179 µM
concentration at 2 h (female, Sprague Dawley, rat, plasma, oral, 0.3 mg/kg/day, F, 2 h after first dose, mean ± SD n=4, read-out: 2 h Plasma Conc.): 0.137 ± 0.033 µM
concentration at 2 h (female, Sprague Dawley, rat, plasma, oral, 0.3 mg/kg/day, F, 2 hours, individual rats, read-out: Plasma Conc.): 82 ng/mL and 124 nM
concentration at 5 days (female, Sprague Dawley, rat, plasma, oral, 0.3 mg/kg/day, F, 5 days, individual rats, read-out: Plasma Conc.): 550 ng/mL and 831 nM
concentration at 2 h (female, Sprague Dawley, rat, plasma, oral, 0.9 mg/kg/day, F, 2 h after first dose, mean ± SD n=4, read-out: 2 h Plasma Conc.): 0.62 ± 0.133 µM
concentration at 2 h (female, Sprague Dawley, rat, plasma, oral, 0.9 mg/kg/day, F, 2 hours, individual rats, read-out: Plasma Conc.): 523 ng/mL and 790 nM
concentration at 5 days (female, Sprague Dawley, rat, plasma, oral, 0.9 mg/kg/day, F, 5 days of exposure, mean ± SD n=4, read-out: 5D Plasma Conc.): 3620 ± 910 nM
concentration at 5 days (female, Sprague Dawley, rat, plasma, oral, 0.9 mg/kg/day, F, 5 days, individual rats, read-out: Plasma Conc.): 1870 ng/mL and 2.83 µM
concentration at 2 h (female, Sprague Dawley, rat, plasma, oral, 2.3 mg/kg/day, F, 2 h after first dose, mean ± SD n=4, read-out: 2 h Plasma Conc.): 15.1 ± 5.3 µM
concentration at 5 days (female, Sprague Dawley, rat, plasma, oral, 2.3 mg/kg/day, F, 5 days of exposure, mean ± SD n=4, read-out: 5D Plasma Conc.): 8920 ± 2360 nM
concentration at 5 days (female, Sprague Dawley, rat, plasma, oral, 2.3 mg/kg/day, F, 5 days, individual rats, read-out: Plasma Conc.): 5700 ng/mL and 8.62 µM
concentration at 2 h (female, Sprague Dawley, rat, plasma, oral, 6.3 mg/kg/day, F, 2 h after first dose, mean ± SD n=4, read-out: 2 h Plasma Conc.): 53.2 ± 16.5 µM
concentration at 5 days (female, Sprague Dawley, rat, plasma, oral, 6.3 mg/kg/day, F, 5 days of exposure, mean ± SD n=4, read-out: 5D Plasma Conc.): 52600 ± 14300 nM
concentration at 5 days (female, Sprague Dawley, rat, plasma, oral, 6.3 mg/kg/day, F, 5 days, individual rats, read-out: Plasma Conc.): 33900 ng/mL and 51.2 µM
concentration at 2 h (female, Sprague Dawley, rat, plasma, oral, 17 mg/kg/day, F, 2 h after first dose, mean ± SD n=4, read-out: 2 h Plasma Conc.): 224 ± 76 µM
concentration at 5 days (female, Sprague Dawley, rat, plasma, oral, 17 mg/kg/day, F, 5 days, individual rats, read-out: Plasma Conc.): 200000 ng/mL and 302 µM
concentration at 2 h (male, Sprague Dawley, rat, plasma, oral, 0.3 mg/kg/day, M, 2 h after first dose, mean ± SD n=4, read-out: 2 h Plasma Conc.): 0.15 ± 0.02 µM
concentration at 2 h (male, Sprague Dawley, rat, plasma, oral, 0.3 mg/kg/day, M, 2 hours, individual rats, read-out: Plasma Conc.): 117 ng/mL and 176 nM
concentration at 5 days (male, Sprague Dawley, rat, plasma, oral, 0.3 mg/kg/day, M, 5 days, individual rats, read-out: Plasma Conc.): 558 ng/mL and 843 nM
concentration at 2 h (male, Sprague Dawley, rat, plasma, oral, 0.9 mg/kg/day, M, 2 h after first dose, mean ± SD n=4, read-out: 2 h Plasma Conc.): 0.573 ± 0.113 µM
concentration at 2 h (male, Sprague Dawley, rat, plasma, oral, 0.9 mg/kg/day, M, 2 hours, individual rats, read-out: Plasma Conc.): 431 ng/mL and 651 nM
concentration at 5 days (male, Sprague Dawley, rat, plasma, oral, 0.9 mg/kg/day, M, 5 days, individual rats, read-out: Plasma Conc.): 1870 ng/mL and 2.83 µM
concentration at 2 h (male, Sprague Dawley, rat, plasma, oral, 2.3 mg/kg/day, M, 2 h after first dose, mean ± SD n=4, read-out: 2 h Plasma Conc.): 13.1 ± 2.8 µM
concentration at 2 h (male, Sprague Dawley, rat, plasma, oral, 2.3 mg/kg/day, M, 2 hours, individual rats, read-out: Plasma Conc.): 7650 ng/mL and 11.6 µM
concentration at 5 days (male, Sprague Dawley, rat, plasma, oral, 2.3 mg/kg/day, M, 5 days of exposure, mean ± SD n=4, read-out: 5D Plasma Conc.): 6640 ± 1730 nM
concentration at 5 days (male, Sprague Dawley, rat, plasma, oral, 2.3 mg/kg/day, M, 5 days, individual rats, read-out: Plasma Conc.): 5680 ng/mL and 8.58 µM
concentration at 2 h (male, Sprague Dawley, rat, plasma, oral, 6.3 mg/kg/day, M, 2 h after first dose, mean ± SD n=4, read-out: 2 h Plasma Conc.): 34 ± 5.5 µM
concentration at 2 h (male, Sprague Dawley, rat, plasma, oral, 6.3 mg/kg/day, M, 2 hours, individual rats, read-out: Plasma Conc.): 23700 ng/mL and 35.8 µM
concentration at 5 days (male, Sprague Dawley, rat, plasma, oral, 6.3 mg/kg/day, M, 5 days of exposure, mean ± SD n=4, read-out: 5D Plasma Conc.): 24500 ± 2300 nM
concentration at 5 days (male, Sprague Dawley, rat, plasma, oral, 6.3 mg/kg/day, M, 5 days, individual rats, read-out: Plasma Conc.): 23300 nM
concentration at 2 h (male, Sprague Dawley, rat, plasma, oral, 17 mg/kg/day, M, 2 h after first dose, mean ± SD n=4, read-out: 2 h Plasma Conc.): 126 ± 62 µM
